Assay results as given in patent US8362012B2, “Benzoxazine benzimidazole derivative, a pharmaceutical composition comprising the same, and a use thereof” (Daewoong Pharmaceutical Co., Ltd., priority 2008, dated 2013).
pIC50: −log10 of the molar value.

Columns and labels:
[1] = target: T1, human vanilloid-1 (hVR-1) in hVR-1-HEK293 cell line (Homo sapiens, UniProt Q8NER1); assay: Inhibitory effect on calcium influx via a vanilloid receptor (capsaicin-stimulated, Fluo-3/AM); assay type: cell-based; details: hVR-1-HEK293 cells, 1 μM of capsaicin, compounds 0.015˜2000 nM; read-out: I.A. (inhibitory activity), IC50 on intracellular calcium influx
T1 construct: expressed in transfected cells; host or cells: HEK293 Tet-on strain, doxycycline-induced
T1 sequence (Q8NER1 whole entry): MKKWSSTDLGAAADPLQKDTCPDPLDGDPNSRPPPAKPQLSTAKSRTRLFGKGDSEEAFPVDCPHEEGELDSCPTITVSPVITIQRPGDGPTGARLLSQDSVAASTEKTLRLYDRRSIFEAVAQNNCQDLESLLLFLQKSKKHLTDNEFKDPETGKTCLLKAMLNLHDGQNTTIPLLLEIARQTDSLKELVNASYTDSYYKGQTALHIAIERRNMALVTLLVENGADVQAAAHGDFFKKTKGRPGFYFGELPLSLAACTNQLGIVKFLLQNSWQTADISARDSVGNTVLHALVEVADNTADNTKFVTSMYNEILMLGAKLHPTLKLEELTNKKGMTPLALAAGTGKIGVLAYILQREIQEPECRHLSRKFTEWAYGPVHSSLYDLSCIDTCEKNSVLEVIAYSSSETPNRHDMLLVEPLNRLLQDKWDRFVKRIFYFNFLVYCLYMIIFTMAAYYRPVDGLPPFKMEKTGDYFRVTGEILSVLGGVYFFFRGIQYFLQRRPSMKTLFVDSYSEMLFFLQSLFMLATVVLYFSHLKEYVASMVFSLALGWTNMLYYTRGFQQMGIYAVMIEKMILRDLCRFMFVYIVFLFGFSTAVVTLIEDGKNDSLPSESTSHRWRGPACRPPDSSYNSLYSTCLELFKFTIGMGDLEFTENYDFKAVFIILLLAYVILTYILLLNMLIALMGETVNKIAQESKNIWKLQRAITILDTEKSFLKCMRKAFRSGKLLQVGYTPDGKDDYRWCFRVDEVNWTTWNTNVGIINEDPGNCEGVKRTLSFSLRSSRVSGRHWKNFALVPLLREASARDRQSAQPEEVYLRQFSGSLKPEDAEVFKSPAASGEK
Summary of the method: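 Doxycycline-induced (1 μg/mL, 2 days) hVR-1-HEK293 cells loaded with Fluo-3/AM for 90 min at 37° C, then stimulated with 1 μM capsaicin. Calcium influx expressed as background-corrected fluorescence relative to positive control, analysed by Hill equation and graded by activity criteria.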

ICR male mice = assay: Phenyl-p-quinone (PBQ)-induced writhing experiment using mice; assay type: in vivo; details: orally administered, PBQ (0.02%) intraperitoneally after 1 hour, writhing counted for 10 min

pIC50 [1] | Compound | I.A. (inhibitory activity), % inhibition rate of writhing (ICR male mice)
> 7.70 | COC[C@H]1COc2c(-c3nc4ccc(Cl)cc4[nH]3)cccc2N1c1ccc(C)cn1 [Example 91, (S)-3-methoxymethyl-4-(5-methyl-pyridin-2-yl)-8-(6-chloro-1H-benzimidazol-2-yl)-3,4-dihydro-2H-benzo[1,4]oxazine] | ++ (20˜50%)
7.00 to 7.70 | Cc1ccc(N2CCOc3c(-c4nc5cc(Cl)c(Cl)cc5[nH]4)cccc32)nc1 [Example 28, 8-(5,6-dichloro-1H-benzimidazol-2-yl)-4-(5-methyl-pyridin-2-yl)-3,4-dihydro-2H-benzo[1,4]oxazine] | + (<20%)
